Experimental data from PubChem BioAssay AID256 (DTP/NCI, 2004).
Toxic doses and inconclusive results are not listed. How the source made its calls: active means survival T/C of 150% or more; inactive means T/C below 125% in these data.

System: CD2F1 mice, L1210 leukemia ip, survival T/C
Test: NCI In Vivo Anticancer Drug Screen. Data for tumor model L1210 Leukemia (intraperitoneal) in CD2F1 (CDF1) mice
Settings: endpoint: mean survival time, higher = longer survival
Protocol: The antitumor activity of compounds was measured in mice bearing transplantable tumors. Survival or tumor size were measured and the results are expressed as the measurement made in the treated group (T) divided by the measurement made in the vehicle treated control group (C). The tumor model used in this assay is L1210 Leukemia (intraperitoneal) in CD2F1 (CDF1) mice

[1] = dose: 25.0 mg/kg/injection, schedule: Q01DX009 (ip), vehicle: saline with Tween-80
[2] = dose: 50.0 mg/kg/injection, schedule: Q01DX009 (ip), vehicle: saline with Tween-80
[3] = dose: 25.0 mg/kg/injection, schedule: Q04DX003 (ip), vehicle: saline with Tween-80
[4] = dose: 50.0 mg/kg/injection, schedule: Q04DX003 (ip), vehicle: saline with Tween-80
[5] = dose: 100.0 mg/kg/injection, schedule: Q04DX003 (ip), vehicle: saline with Tween-80
[6] = dose: 100.0 mg/kg/injection, schedule: Q01DX009 (ip), vehicle: saline with Tween-80
[7] = dose: 200.0 mg/kg/injection, schedule: Q01DX009 (ip), vehicle: saline with Tween-80
[8] = dose: 100.0 mg/kg/injection, schedule: Q01DX001 (ip), vehicle: saline
[9] = dose: 200.0 mg/kg/injection, schedule: Q01DX001 (ip), vehicle: saline
[10] = dose: 200.0 mg/kg/injection, schedule: Q04DX003 (ip), vehicle: saline with Tween-80
[11] = dose: 400.0 mg/kg/injection, schedule: Q04DX003 (ip), vehicle: saline with Tween-80

Measured: T/C

CCOC(=O)CCC(C#N)(CC(=O)OCC)C(=O)OCC (stereo not given)
inactive: dose: 100.0 mg/kg/injection, schedule: Q01DX001 (ip), vehicle: saline with Tween-80 96 % of control | dose: 200.0 mg/kg/injection, schedule: Q01DX001 (ip), vehicle: saline with Tween-80 104 % of control | dose: 400.0 mg/kg/injection, schedule: Q01DX001 (ip), vehicle: saline with Tween-80 104 % of control

O=C(NCO)c1ccccc1
inactive: dose: 50.0 mg/kg/injection, schedule: Q01DX009 (ip), vehicle: Klucel (hydroxypropylcellulose) (HPC) 96 % of control | dose: 100.0 mg/kg/injection, schedule: Q01DX009 (ip), vehicle: Klucel (hydroxypropylcellulose) (HPC) 96 % of control | dose: 200.0 mg/kg/injection, schedule: Q01DX009 (ip), vehicle: Klucel (hydroxypropylcellulose) (HPC) 96 % of control

CC(C)(C)C1OCCCO1
inactive: dose: 100.0 mg/kg/injection, schedule: Q04DX002 (ip), vehicle: saline 104 % of control | dose: 200.0 mg/kg/injection, schedule: Q04DX002 (ip), vehicle: saline 110 % of control | dose: 400.0 mg/kg/injection, schedule: Q04DX002 (ip), vehicle: saline 104 % of control

CC(O)C[As](=O)(O)c1ccccc1Cl (stereo not given)
inactive: dose: 6.25 mg/kg/injection, schedule: Q04DX003 (ip), vehicle: saline 107 % of control | dose: 12.5 mg/kg/injection, schedule: Q04DX003 (ip), vehicle: saline 107 % of control

CCC(=O)NC1=CC(=O)c2ccccc2C1=O
inactive: [1] 101 % of control | [2] 100 % of control

O=C(C=C(C(F)(F)F)C(F)(F)F)c1ccco1
inactive: dose: 12.5 mg/kg/injection, schedule: Q04DX003 (ip), vehicle: saline with Tween-80 105 % of control | [3] 102 % of control | [4] 94 % of control

O=C1NC(CN2CCC(O)CC2)C(=O)NC1CN1CCC(O)CC1 (stereo not given)
inactive: dose: 3.13 mg/kg/injection, schedule: Q01DX009 (ip), vehicle: water 97 % of control | dose: 6.25 mg/kg/injection, schedule: Q01DX009 (ip), vehicle: water 95 % of control | dose: 12.5 mg/kg/injection, schedule: Q01DX009 (ip), vehicle: water 97 % of control | dose: 25.0 mg/kg/injection, schedule: Q01DX009 (ip), vehicle: water 100 % of control | dose: 50.0 mg/kg/injection, schedule: Q01DX009 (ip), vehicle: water 100 % of control | dose: 100.0 mg/kg/injection, schedule: Q01DX009 (ip), vehicle: water 108 % of control

Cc1cccc([N+](=O)[O-])n1
inactive: [3] 109 % of control | [4] 95 % of control | [5] 98 % of control

O=C1/C(=C/c2ccccc2)CCC/C1=C\c1ccccc1
inactive: [1] 94 % of control | [2] 94 % of control | [6] 89 % of control

O=C(CC(=Nc1ccccc1)c1ccccc1)c1ccccc1.O=C(CC(=Nc1ccccc1)c1ccccc1)c1ccccc1.[Cu]
inactive: dose: 12.5 mg/kg/injection, schedule: Q01DX009 (ip), vehicle: saline with Tween-80 98 % of control | [1] 93 % of control

O=C(CC1(O)C(=O)Nc2ccccc21)c1c[nH]c2ccccc12 (stereo not given)
inactive: [2] 95 % of control | [6] 98 % of control | [7] 91 % of control

Cn1c(=O)c2c(ncn2CCSS(=O)(=O)O)n(C)c1=O
inactive: dose: 12.5 mg/kg/injection, schedule: Q01DX005 (ip), vehicle: water 100 % of control | dose: 25.0 mg/kg/injection, schedule: Q01DX005 (ip), vehicle: water 94 % of control | dose: 50.0 mg/kg/injection, schedule: Q01DX005 (ip), vehicle: water 102 % of control | dose: 100.0 mg/kg/injection, schedule: Q01DX005 (ip), vehicle: water 100 % of control | dose: 200.0 mg/kg/injection, schedule: Q01DX005 (ip), vehicle: water 98 % of control

NC/C(=N\O)c1ccc(Cl)cc1
inactive: [8] 97 % of control | [9] 103 % of control

O=c1cc2cccccc-2cc1O
inactive: dose: 5.0 mg/kg/injection, schedule: Q01DX001 (ip), vehicle: saline 103 % of control | dose: 10.0 mg/kg/injection, schedule: Q01DX001 (ip), vehicle: saline 97 % of control | dose: 20.0 mg/kg/injection, schedule: Q01DX001 (ip), vehicle: saline 101 % of control | dose: 20.0 mg/kg/injection, schedule: Q04DX003 (ip), vehicle: saline with Tween-80 97 % of control | dose: 40.0 mg/kg/injection, schedule: Q01DX001 (ip), vehicle: saline 103 % of control | dose: 40.0 mg/kg/injection, schedule: Q04DX003 (ip), vehicle: saline with Tween-80 97 % of control | dose: 80.0 mg/kg/injection, schedule: Q01DX001 (ip), vehicle: saline 97 % of control

COC1=C(C)C(=O)C2=C(C1=O)C(COC(N)=O)C1(OC)C3C(CN21)N3C(=O)c1ccccc1 (stereo not given)
inactive: dose: 7.5 mg/kg/injection, schedule: Q01DX001 (ip), vehicle: acetone 106 % of control | dose: 10.0 mg/kg/injection, schedule: Q01DX001 (ip), vehicle: acetone 112 % of control | dose: 15.0 mg/kg/injection, schedule: Q01DX001 (ip), vehicle: acetone 112 % of control

Cc1ncc(C[P+](c2ccccc2)(c2ccccc2)c2ccccc2)c(C)c1O
inactive: dose: 75.0 mg/kg/injection, schedule: Q01DX001 (ip), vehicle: saline 102 % of control

COc1ccc(N2C(=O)CSC2=S)cc1
inactive: [5] 102 % of control | [10] 96 % of control | [11] 102 % of control

NC(=O)OCCc1c2ccccc2nc2ccccc12
inactive: dose: 25.0 mg/kg/injection, schedule: Q04DX002 (ip), vehicle: other 96 % of control | dose: 50.0 mg/kg/injection, schedule: Q04DX002 (ip), vehicle: other 93 % of control | dose: 100.0 mg/kg/injection, schedule: Q04DX002 (ip), vehicle: other 93 % of control | dose: 100.0 mg/kg/injection, schedule: Q04DX002 (ip), vehicle: saline with Tween-80 105 % of control | dose: 400.0 mg/kg/injection, schedule: Q04DX002 (ip), vehicle: saline with Tween-80 105 % of control

CC(C)(C)CC(C)(C)c1ccc(OCCOc2ccccc2N)cc1
inactive: [6] 88 % of control | [7] 88 % of control | dose: 400.0 mg/kg/injection, schedule: Q01DX009 (ip), vehicle: saline with Tween-80 94 % of control

O=C(Nc1c(Cl)cccc1Cl)OCCOc1ccc(Br)cc1
inactive: [2] 100 % of control | [6] 103 % of control | [7] 107 % of control

CCOC(=O)c1c[nH]c2cc(OCC3CC3)c(OCC3CC3)cc2c1=O
inactive: [5] 95 % of control | [10] 95 % of control | [11] 93 % of control

O=C(O)C12CC3CC(CC(C3)C1)C2
inactive: [5] 103 % of control | [10] 105 % of control | [11] 102 % of control

CNC1CCCCC1[N+](C)(C)C (stereo not given)
inactive: dose: 5.0 mg/kg/injection, schedule: Q01DX009 (ip), vehicle: saline 98 % of control | dose: 5.0 mg/kg/injection, schedule: Q04DX003 (ip), vehicle: saline 103 % of control | dose: 10.0 mg/kg/injection, schedule: Q01DX009 (ip), vehicle: saline 101 % of control | dose: 10.0 mg/kg/injection, schedule: Q04DX003 (ip), vehicle: saline 101 % of control | dose: 20.0 mg/kg/injection, schedule: Q01DX009 (ip), vehicle: saline 96 % of control | dose: 20.0 mg/kg/injection, schedule: Q04DX003 (ip), vehicle: saline 98 % of control

Brc1ccc2ncc3ccccc3c2c1
inactive: [8] 93 % of control | [9] 98 % of control | dose: 400.0 mg/kg/injection, schedule: Q01DX001 (ip), vehicle: saline 96 % of control
